Data on five molecules can be found in patent publication US12120996B2, “Induction method for improving yield and fertility of 2n pollen in Camellia oleifera” (Central South University of Forestry and Technology, priority 2024, dated 2024).

For experiment [1], the system named is Camellia oleifera 'Huaxin' 2n pollen. In words: 2n pollen yield (occurrence frequency) after precursor application and 45° C. high-temperature treatment of flower branches. The experiment is classed as in vivo. On the procedure: (§1) After the high-temperature treatment was released, Camellia oleifera grew naturally until anthers were pollinated. Pollen of each treatment was collected, and a temporary smear of the pollen was made by an aceto-carmine staining method and then photographed by an OlympusDP70 optical microscope; and a diameter of pollen in a temporary smear of each treatment was measured by Image J software, and a yield and a fertility rate of 2n pollen were counted.
(§2) Pollen stained red by aceto-carmine was counted as fertile pollen, and pollen not stained red by aceto-carmine was counted as infertile pollen (as shown in FIG. 3).
(§3) An occurrence frequency of 2n pollen was a ratio of an amount of 2n pollen to a total amount of pollen observed, and a fertility rate of 2n pollen was a ratio of an amount of fertile 2n pollen to a total amount of 2n pollen observed. […] When no high-temperature treatment is applied, an occurrence frequency of 2n pollen is 0.9%, and a fertility rate is 100%. • 2. […] Treatment conditions for 2n pollen in Camellia oleifera in the present disclosure: a leptotene stage to a pachytene stage of pollen mother cells, a style length: less than 2.57 mm, an induction temperature: 43° C. to 49° C., and an induction time: 3 h to 6 h.
(§4) Flower branches with a style length developing to 1.97 mm<L≤2.27 mm and pollen mother cells at a leptotene stage to a pachytene stage were selected as target flower branches, and DMTU solutions with different concentrations were applied to the target flower branches, respectively; and a flower branch not treated with a DMTU solution was adopted as a control.
(§5) The concentrations of the DMTU solutions were 1 mg/L, 5 mg/L, 10 mg/L, 15 mg/L, 20 mg/L, and 25 mg/L, respectively. Preparation method of a DMTU solution: DMTU was first dissolved with an appropriate amount of alcohol, and then water was added to a required concentration.
(§6) The above DMTU solutions with different concentrations each were sprayed on a flower branch, where a DMTU solution was evenly sprayed on a flower branch by a sprayer until there were condensed water droplets flowing down from leaves or flower buds; and each treatment was numbered and recorded (as shown in Table 3).
(§7) After each DMTU solution was applied, in order to avoid rapid evaporation of a solution on a leaf surface due to a high-temperature treatment, the whole flower branch was wrapped with a plastic film, and then the non-ex vivo tree branch bud heating device in the authorized patent (patent ZL200610113448.X) was immediately used to apply a 45° C. high-temperature treatment to each target flower branch for 4 h, namely, a high-temperature doubling treatment. A doubling treatment method was the same as the doubling treatment method in step 1.2 of Example 1.
(§8) After a high-temperature treatment was conducted for 4 h, a heating bag and a plastic film were removed to release the high-temperature treatment, and Camellia oleifera was allowed to grow naturally until anthers were pollinated. Pollen of each treatment was collected, and a temporary smear of the pollen was made by an aceto-carmine staining method and then photographed by an Olympus DP70 optical microscope; and a diameter of pollen was measured by Image J software, and an occurrence frequency and a fertility rate of 2n pollen were counted.
(§9) The above reagents were applied through spraying on a flower branch and injection into a flower bud. The spraying on a flower branch was as follows: a precursor solution was evenly sprayed on the flower branch by a sprayer until there were condensed water droplets flowing down from leaves or flower buds. The injection into a flower bud was as follows: a precursor solution was injected into the flower bud by a 5 mL syringe (0.5×20 mm injection needle) through a scale gap at a top of the flower bud until there were water droplets overflowing a surface of the flower bud. […]

Experiment [2] shares this test system. In words: 2n pollen fertility rate (aceto-carmine staining) after precursor application and 45° C. high-temperature treatment of flower branches. The note with it: for 2n pollen fertility rate (%): 45° C.; for k1 (K1/4, mean 2n pollen fertility rate at level 1): level 1: DMTU 5 mg/L, mannitol 0.1 g/L, ascorbic acid 0.5 mg/L, brassinolide 2.0 mg/L, sucrose 5 g/L; for k2 (K2/4, mean 2n pollen fertility rate at level 2): level 2: DMTU 10 mg/L, ascorbic acid 1.0 mg/L, sucrose 10 g/L; for k3 (K3/4, mean 2n pollen fertility rate at level 3): level 3: DMTU 15 mg/L, mannitol 1.0 g/L, brassinolide 6.0 mg/L, sucrose 15 g/L; for k4 (K4/4, mean 2n pollen fertility rate at level 4): level 4: DMTU 20 mg/L, mannitol 2.0 g/L, ascorbic acid 2.0 mg/L, brassinolide 8.0 mg/L, sucrose 30 g/L. The experiment is classed as in vivo. As to the method: as §1, §2, §3, §4, §5, §6, §7, §8, §9

[3] abbreviates: Injection into a flower bud, DMTU 10 mg/L, mannitol 0.5 g/L, ascorbic acid 1.5 mg/L, brassinolide 4.0 mg/L, 4 h (Example 2B).
The mark [4] stands for this setting: Spraying on a flower branch, DMTU 10 mg/L, mannitol 0.5 g/L, ascorbic acid 1.5 mg/L, brassinolide 4.0 mg/L, 4 h (Example 2B).
Where [5] appears, read: mannitol 0.5 g/L, brassinolide 4.0 mg/L, in %.
Setting [6] is: DMTU solution 1 mg/L sprayed on flower branch, 4 h.
Setting [7] is: DMTU solution 5 mg/L sprayed on flower branch, 4 h.
Setting [8] is: DMTU solution 10 mg/L sprayed on flower branch, 4 h (Example 2A).
The mark [9] stands for this setting: DMTU solution 15 mg/L sprayed on flower branch, 4 h.
[10] abbreviates: DMTU solution 20 mg/L sprayed on flower branch, 4 h.
[11] abbreviates: DMTU solution 25 mg/L sprayed on flower branch, 4 h.

On to `O=C1O[C@H]([C@@H](O)CO)C(O)=C1O` [Ascorbic acid, ascorbic acid], for which the “2n pollen yield (%)” value in experiment [1] (setting [3]) is on record as 10.05%; in experiment [1] (setting [4]) it was 9.76%. The “2n pollen fertility rate (%)” value is recorded as 81.26% in experiment [2] (setting [3]) and 79.58% in experiment [2] (setting [4]). The “k1 (K1/4, mean 2n pollen fertility rate at level 1)” value in experiment [2] stood at 80.47. Also, in experiment [2] (mannitol 0.5 g/L, brassinolide 4.0 mg/L), the “k2 (K2/4, mean 2n pollen fertility rate at level 2)” value came out at 83.42. The “k3 (K3/4, mean 2n pollen fertility rate at level 3)” value in experiment [2] (ascorbic acid 1.5 mg/L) worked out at 81.04. Moreover, in experiment [2], the “k4 (K4/4, mean 2n pollen fertility rate at level 4)” value came out at 80.24.
For the molecule `OC[C@H]1O[C@@](CO)(O[C@H]2O[C@H](CO)[C@@H](O)[C@H](O)[C@H]2O)[C@@H](O)[C@@H]1O` [Sucrose, sucrose], in experiment [2] (in %), the “k1 (K1/4, mean 2n pollen fertility rate at level 1)” value is 80.87 and the “k4 (K4/4, mean 2n pollen fertility rate at level 4)” value was found to be 80.44. Further, in experiment [2] (setting [5]), the “k2 (K2/4, mean 2n pollen fertility rate at level 2)” value worked out at 80.95. Further, the “k3 (K3/4, mean 2n pollen fertility rate at level 3)” value in experiment [2] (ascorbic acid 1.5 mg/L, in %) is recorded as 82.91.
As to `CNC(=S)NC` [DMTU, N,N′-Dimethylthiourea], the “2n pollen yield (%)” value in experiment [1] (setting [6]) amounted to 9.17%; in experiment [1] (setting [7]), 9.81%; in experiment [1] (setting [8]), 11.52%; in experiment [1] (setting [9]), 10.83%; in experiment [1] (setting [10]), 10.15%; in experiment [1] (setting [11]), 9.05%. Besides, the results for the “2n pollen yield (%)” value in experiment [1] (setting [3]) and in experiment [1] (setting [4]) were 12.17% and 11.52%, respectively. Also, the “2n pollen yields and fertility rates compared with the control” value in experiment [2] (5 mg/L, 10 mg/L, 15 mg/L and 20 mg/L DMTU solutions sprayed on flower branches) is recorded as “significantly improved”. Also, the “2n pollen fertility rate (%)” value in experiment [2] (setting [6]) worked out at 64.25%; in experiment [2] (setting [7]), 75.94%; in experiment [2] (setting [8]), 86.23%; in experiment [2] (setting [9]) it was 82.46%; in experiment [2] (setting [10]) it was 78.61%; in experiment [2] (setting [11]) it was 64.43%. Further, the results for the “2n pollen fertility rate (%)” value in experiment [2] (setting [3]) and in experiment [2] (setting [4]) were 90.14% and 86.97%, respectively. For the same molecule, in experiment [2] (in %), the “k1 (K1/4, mean 2n pollen fertility rate at level 1)” value is 78.23. Besides, in experiment [2] (setting [5]), the “k2 (K2/4, mean 2n pollen fertility rate at level 2)” value was found to be 87.54. Further, in experiment [2] (ascorbic acid 1.5 mg/L, in %), the “k3 (K3/4, mean 2n pollen fertility rate at level 3)” value was determined as 81.12. In addition, the “k4 (K4/4, mean 2n pollen fertility rate at level 4)” value in experiment [2] (in %) is on record as 78.28.
`CC(C)[C@H](C)[C@@H](O)[C@H](O)[C@@H](C)[C@H]1CC[C@H]2[C@@H]3COC(=O)[C@H]4C[C@H](O)[C@H](O)C[C@]4(C)[C@H]3CC[C@]12C` [Brassinolide, brassinolide]: the “2n pollen yield (%)” value in experiment [1] (setting [3]) is 11.03%; in experiment [1] (setting [4]), 10.83%. Besides, the results for the “2n pollen fertility rate (%)” value in experiment [2] (setting [3]) and in experiment [2] (setting [4]) were 84.13% and 82.58%, respectively. Besides, the “k1 (K1/4, mean 2n pollen fertility rate at level 1)” value in experiment [2] (in %) amounted to 79.88. The “k2 (K2/4, mean 2n pollen fertility rate at level 2)” value in experiment [2] (setting [5]) is 82.98. Also, the “k3 (K3/4, mean 2n pollen fertility rate at level 3)” value in experiment [2] (ascorbic acid 1.5 mg/L, in %) amounted to 81.95. Moreover, the “k4 (K4/4, mean 2n pollen fertility rate at level 4)” value in experiment [2] (in %) came out at 80.36.
On to `OC[C@@H](O)[C@@H](O)[C@H](O)[C@H](O)CO` [Mannitol, mannitol], for which the “2n pollen yield (%)” value in experiment [1] (setting [3]) amounted to 9.68%; in experiment [1] (setting [4]), 9.81%. In addition, the results for the “2n pollen fertility rate (%)” value in experiment [2] (setting [3]) and in experiment [2] (setting [4]) were 77.89% and 75.94%, respectively. Besides, the “k1 (K1/4, mean 2n pollen fertility rate at level 1)” value in experiment [2] (in %) is reported as 81.64. The “k2 (K2/4, mean 2n pollen fertility rate at level 2)” value in experiment [2] (setting [5]) was found to be 82.95. Also, in experiment [2] (ascorbic acid 1.5 mg/L, in %), the “k3 (K3/4, mean 2n pollen fertility rate at level 3)” value came to 80.98. Also, in experiment [2] (in %), the “k4 (K4/4, mean 2n pollen fertility rate at level 4)” value is 79.59.
